{"source": "patent US20240050389A1", "about": "“TREATMENT OF IDIOPATHIC PULMONARY FIBROSIS” (priority 2020, published 2024)", "key": {"[1]": {"system": "primary human lung fibroblasts", "assay": "Seahorse mitochondrial stress test (OCR) of human lung fibroblasts cultured with itaconate", "type": "cell-based", "settings": "IPF HLFs (increased vs healthy HLFs), 24 h incubation with itaconate"}, "[2]": {"system": "primary human lung fibroblasts", "assay": "JULI-Stage proliferation assay", "type": "cell-based", "settings": "10 mM itaconate, over 72 h", "protocol": "(§1) Primary human lung fibroblasts were seeded in 96-well plate for proliferation assay (5,000 per well) or 24-well plate for wound healing assay and serum-starved overnight prior to treatment with itaconate in complete DMEM for 48-72 hrs. For wound healing assays, a standardised scratch was applied in each well using a p10 pipette tip. Images were taken in JULI-Stage system (NanoEntek) at three to five positions per well every 30 minutes and proliferation rate or wound closure were calculated using JU LI-Stage software (NanoEntek).\n(§2) Human lung fibroblasts were cultured in media alone or supplemented with itaconate and assessed after 24 h-72 h. […] To assess the ability of itaconate to limit fibrosis related functions of HLFs, proliferation and wound healing assays were carried out in the presence or absence of itaconate."}, "[3]": {"system": "primary human lung fibroblasts", "assay": "JULI-Stage wound healing (scratch) assay", "type": "cell-based", "settings": "healthy HLFs, 10 mM itaconate, over a 48 h period", "protocol": "as §1, §2"}, "[4]": {"system": "healthy human primary lung fibroblasts", "assay": "Real-time PCR gene expression in fibroblasts cultured with itaconate", "type": "cell-based", "settings": "healthy HLFs, 10 mM itaconate, 24 h", "excerpt": "(§3) Primary human lung fibroblasts were isolated from lung resections of patients undergoing lung cancer surgery or lung transplantation performed after informed consent as approved by an external Research Ethics Committee (REC 15/SC0101) according to the Royal Brompton Hospital protocol (Royal Brompton & Harefield NHS Foundation Trust, 2016) and cultured in complete Dulbecco's modified eagle medium (10% FBS, 100 U/ml penicillin/streptomycin) (Gibco, ThermoFisher) to passage four. Human bronchial epithelial cells (HBE) were obtained from bronchial brushings during the bronchoscopy after informed consent and approved by an external Research Ethics Committee for ILD subjects (Ref. Nos. 10/H0720/12 and 15/SC0101). HBEs were cultured in bronchia.1 e thelial growth (BEGM) medium (Lonza) to passage four. MACS enriched human AM were cultured in complete RPMI (10% FBS, 100U/ml penicillin/streptomycin, Gibco, ThermoFisher) for 24 hrs. Fibroblasts and AM were cultured with 10 mM itaconate in complete medium for 24hrs prior to cell lysis in RLT buffer (QIAGEN) containing 1% 2-Mercaptoethanol (Sigma Aldrich)."}, "[5]": {"assay": "Tolerability of inhaled (oropharyngeal) itaconate in naïve mice", "type": "in vivo", "settings": "inhaled dose of 0.25 mg/kg", "protocol": "FIG. 18: Exogenous itaconate is anti-fibrotic. (A-C) Total BAL count, percentage of eosinophils (B) and Percentage of neutrophils (C) of PBS or itaconate dosed mice (0.25-10 mg/kg, oropharyngeal), 24 h post administration (n=4 per group). Data presented as mean±S.D.; Significance was tested by ordinary one-way ANOVA with Sidak's multiple comparison test, **P<0.01.\nIn order to address whether inhaled itaconate is anti-fibrotic, it was first determined a dose of itaconate that would not provoke an inflammatory response in murine airways. […] We administered inhaled (OPN) itaconate or PBS twice a week for two weeks during the fibrotic phase (starting at day 10 post bleomycin) to WT mice (FIG. 7A); this dosing strategy is in accordance with the American Thoracic guidelines for preclinical assessment of potential therapies for IPF (Jenkins et al., 2017). Subsequently pathology, fibrosis and lung function at d21 post bleomycin were assessed."}, "[6]": {"system": "bleomycin induced pulmonary fibrosis", "assay": "Therapeutic inhaled itaconate in bleomycin mouse model", "type": "in vivo", "settings": "0.25 mg/kg oropharyngeal twice a week for two weeks from day 10 post bleomycin, WT mice", "experimental": "Unless otherwise stated, all mice were between 8 and 12 weeks of age. Mice were housed in specific-pathogen-free conditions and given food and water ad libitum. All procedures were approved by the United Kingdom Home Office and conducted in strict accordance with the Animals (Scientific Procedures) Act 1986. […] All surgery was performed under ketamine and sodium pentobarbital anaesthesia and all efforts were made to minimize suffering. Mice were administered either 0.05U (1U/ml solution dissolved in PBS) of bleomycin sulphate (Sigma Aldrich) or 50 μl PBS via the oropharyngeal route at day 0 and culled after 7, 21 or 42 days. For therapeutic experiments mice were administered 0.25 mg/kg (1 mM solution dissolved in PBS, 50 μl) itaconic acid (Sigma Aldrich) or PBS via the oropharyngeal route twice a week, beginning 10 days after of bleomycin administration.\nLung function measurements were performed using the Flexivent system (Scireq, Montreal, Canada). After induction of anaesthesia with an i.p. injection of Pentobarbitone (50 mg/Kg, Sigma, UK) and i.m. injection of Ketamine (200 mg/Kg) (Fortdodge Animal Health Ltd, Southampton, UK), mice were tracheotomised and attached to the Flexivent ventilator via a blunt-ended 19-gauge needle. Mice were ventilated using the following settings; tidal volume of 7 ml/Kg body weight, 150 breaths/minute; positive end-expiratory pressure approximately 2 cm H2O. Standardisation of lung volume history was done by performing two deep inflations. Subsequently, measurements of dynamic resistance, dynamic elastance and dynamic compliance were determined using the snapshot-150 perturbation, a single frequency sinusoidal waveform. Resultant data was fitted using multiple linear regression to the single compartment model to determine the above parameters.\nParaffin-embedded sections (4 μm) of lungs (apical lobe) were stained with hematoxylin/eosin (H&E) and Sirius Red. For assessment of fibrosis, the semi-quantitative Ashcroft scoring system was used as previously described (Hubner et al., 2008, Biotechniques, 44(4): 507-11). All scoring and measurements were performed by 3-5 blinded independent observers.\nTotal RNA was reverse transcribed into cDNA using the High Capacity cDNA Reverse Transcription kit (Life Technologies), or GoScript reverse transcription system (Promega) for AMs, according to manufacturer's instructions. Real-time PCR was performed using fast-qPCR mastermix (Life technologies) on a Viia-7 instrument (Applied Biosciences) with Taqman primers for murine acod1, col-1α1, col3α1, col4α1, fn1, mmp2 or human acod1, cd163, fn1, IL-16, mmp1, mmp9 using actb (Life Technologies) as housekeeping gene."}, "[7]": {"system": "AMs from IPF patients", "assay": "Culture of AMs from IPF patients with itaconate", "type": "cell-based, human", "settings": "AMs from IPF patients cultured with itaconate", "excerpt": "as §3\n1×10^7 BAL cells were stained with anti-CD206 (Biolegend) and Human TruStain FcX block (Biolegend) for 15 minutes at 4° C. in 0.5% FBS/2 mM EDTA in PBS prior to incubation with MACS anti-Cy7 microbeads (Miltenyi Biotec) for 15 minutes at 4° C. […]"}}}
{"smiles": "C=C(CC(=O)O)C(=O)O", "note": "[itaconate, 2-methylidenebutanedioic acid]", "values": [{"measurement": "maximal respiration", "setting": "[1]", "value": "ameliorated"}, {"measurement": "spare respiratory capacity", "setting": "[1]", "value": "ameliorated"}, {"measurement": "proliferative capacity", "setting": "[2]; HLFs from IPF patients", "value": "significantly reduced"}, {"measurement": "proliferative capacity", "setting": "[2]; HLFs from healthy donors", "value": "significantly reduced"}, {"measurement": "ability to close a standardized wound", "setting": "[3]", "value": "decreased"}, {"measurement": "gene expression of FN-1", "setting": "[4]", "value": "downregulated"}, {"measurement": "gene expression of IL-1β", "setting": "[4]", "value": "downregulated"}, {"measurement": "tolerability (no inflammatory response in murine airways)", "setting": "[5]; repeated oropharyngeal administration, naïve mice (data not shown)", "value": "well tolerated"}, {"measurement": "tolerability (no inflammatory response in murine airways)", "setting": "[5]; single oropharyngeal administration, naïve mice", "value": "well tolerated"}, {"measurement": "Ashcroft score based on Sirius red staining", "setting": "[6]; d21", "value": "significantly ameliorated"}, {"measurement": "expression of Col4α1 (lung homogenate)", "setting": "[6]; d21", "value": "significantly ameliorated"}, {"measurement": "expression of Fn1 (lung homogenate)", "setting": "[6]; d21", "value": "significantly ameliorated"}, {"measurement": "lung airway compliance", "setting": "[6]; d21, FlexiVent", "value": "significantly ameliorated"}, {"measurement": "lung airway elastance", "setting": "[6]; d21, FlexiVent", "value": "significantly ameliorated"}, {"measurement": "pro-fibrotic and pro-inflammatory pathways", "setting": "[7]", "value": "inhibits"}]}
